From patent US20240393292A1, “ALLERGY ANTIGEN AND EPITOPE THEREOF” (HOYU CO., LTD., priority 2019, published 2024)
Values belong to the substance of their own block, whether it stands above or below them.

Test system: IgE antibodies from patients
Assay: Wheat epitope mapping (2): overlapping 10-amino-acid peptide fragments shifted by one amino acid;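 as to Rank of partial sequence as epitope binding to IgE antibody: key = sequence deemed particularly important within the common 15-residue sequence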;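 as to epitope sequence binding to IgE antibody, rank (Key/Preferably/More preferably): key of grades: preferably = shorter partial sequence still acting as epitope; more preferably = sequence improving IgE binding; key = particularly important sequence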
Type: binding, human
Method: The peptides to be synthesized were shifted by one amino acid.
The library was prepared by the same procedure as described above in (A), and the presence or absence of binding of an IgE antibody present in the serum of a patient to each peptide fragment was measured by the same technique as described above. Numeric values determined from images obtained as a result of carrying out only the procedures (1) and (4) to (6) described above in the subsection titled (3) Spotting of cellulose-bound peptide solution were used as control values. The control value of each peptide was subtracted from numeric values determined from images obtained from results about the serum of patients, and the obtained value of the difference was compared with values of the peptides serving as the basis of overlapping.
Chemiluminescence intensity in images obtained by measurement was converted into a numeric value in the same manner as in (A). Numeric values determined from images obtained as a result of carrying out only the procedures (1) and (4) to (6) described above in the subsection titled (3) Spotting of cellulose-bound peptide solution (secondary antibody measurement values) were used as control values. The control value of each peptide was subtracted from numeric values determined from images obtained from results about the serum of patients. When values obtained using the sequences (SEQ ID NOs: 29, 131, 191, 281, 346, 414, 493, 562, 640, 706, 776, 899, 974, 1010, 1089, 1142, 1166, 1209, 1257, 1297, 1367, 1403, 1508, 1566, 1598, 1608, 1685, 1753, 1789, 1836, 1895, 1977, 2004, 2027, 2068, 2154, 2217, 2265, 2309, 2342, 2419, 2491, 2545, 2613, 2631, 2674, 2701, 2774, 2809 and 2830) serving as the basis of overlapping were defined as 100%, it was determined that: a peptide having a value of the difference that was less than 30% had no binding activity against IgE antibodies; a peptide having a value of the difference that was 30% or more and less than 50% had binding activity, albeit poor, against IgE antibodies; a peptide having a value of the difference that was 50% or more and less than 70% had binding activity, albeit somewhat poor, against IgE antibodies; and a peptide having a value of the difference that was 70% or more had equivalent or good binding activity against IgE antibodies and was thus a peptide had remaining binding activity against IgE antibodies.

[1] = serum of patient P21 (WDEIA), sequence without X
[2] = serum of patient G7 (adult, general immediate type allergy to wheat), sequence without X
[3] = serum of patient P31 (WDEIA), sequence without X
[4] = serum of patient P35 (WDEIA), sequence without X

Epitope sequence binding to IgE antibody, rank of the sequence (serum of patient P14 (WDEIA), partial sequence): Key
Substance: 2641 (KEAAEM; REGION 1..6: note = epitope) [compound 2641]

epitope sequence binding to IgE antibody, rank (Key/Preferably/More preferably) (serum of patient P3 (WDEIA)): Preferably
Substance: 1900 (QVPLVQQ; REGION 1..7: note = epitope) [compound 1900]

Rank of partial sequence as epitope binding to IgE antibody (serum of patient G6 (adult, general immediate type allergy to wheat), sequence without X): Key
Substance: 1495 (YLQPQQPI; REGION 1..8: note = epitope) [compound 1495]

Epitope sequence binding to IgE antibody, rank of the sequence [1]: Key
Substance: 1394 (QPLP; REGION 1..4: note = epitope) [compound 1394]

Epitope sequence binding to IgE antibody, rank of the sequence (serum of patient P10 (WDEIA), sequence without X): Preferably
Substance: 1221 (PIQQQPQPF; REGION 1..9: note = epitope) [compound 1221]

Epitope sequence binding to IgE antibody, rank of the sequence (serum of patient P2 (WDEIA), partial sequence): Key
Substance: 2615 (SLSKRV; REGION 1..6: note = epitope) [compound 2615]

epitope sequence binding to IgE antibody, rank (Key/Preferably/More preferably) (serum of patient P30 (WDEIA)): Key
Substance: 1765 (YLKKVGYN; REGION 1..8: note = epitope) [compound 1765]

Rank of partial sequence as epitope binding to IgE antibody (serum of patient P51 (child, general immediate type allergy to wheat), sequence without X): Preferably
Substance: 1653 (YNPDKVPFV; REGION 1..9: note = epitope) [compound 1653]

Rank of partial sequence as epitope binding to IgE antibody [2]: Preferably
Substance: 1500 (YLQPQQPIS; REGION 1..9: note = epitope) [compound 1500]

Epitope sequence binding to IgE antibody, rank of the sequence (serum of patient P12 (WDEIA), sequence without X): Preferably
Substance: 1225 (QQPIQQQP; REGION 1..8: note = epitope) [compound 1225]

Epitope sequence binding to IgE antibody, rank of the sequence [3]: Preferably
Substance: 1245 (PQQPPC; REGION 1..6: note = epitope) [compound 1245]

Epitope sequence binding to IgE antibody, rank of the sequence [2]: Key
Substance: 1295 (VSMILPRSD; REGION 1..9: note = epitope) [compound 1295]

Epitope sequence binding to IgE antibody, rank of the sequence (serum of patient P53 (child, general immediate type allergy to wheat), partial sequence): Key
Substance: 2600 (QQLC; REGION 1..4: note = epitope) [compound 2600]

Epitope sequence binding to IgE antibody, rank of the sequence (Key/Preferably/More preferably/Further preferably) (serum of patient P2 (WDEIA), sequence without X): Key
Substance: 1301 (SINVEN; REGION 1..6: note = epitope) [compound 1301]

Rank of partial sequence as epitope binding to IgE antibody (serum of patient P24 (WDEIA), sequence without X): Preferably
Substance: 1620 (YNPDKV; REGION 1..6: note = epitope) [compound 1620]

epitope sequence binding to IgE antibody, rank (Key/Preferably/More preferably) (serum of patient P53 (child, general immediate type allergy to wheat)): Key
Substance: 1732 (KEAA; REGION 1..4: note = epitope) [compound 1732]

epitope sequence binding to IgE antibody, rank (Key/Preferably/More preferably) (serum of patient G7 (adult, general immediate type allergy to wheat)): Key
Substance: 1751 (SQVIIM; REGION 1..6: note = epitope) [compound 1751]

Rank of partial sequence as epitope binding to IgE antibody [4]: Key
Substance: 1556 (LVQQQ; REGION 1..5: note = epitope) [compound 1556]

epitope sequence binding to IgE antibody, rank (Key/Preferably/More preferably) (serum of patient P33 (WDEIA)): More preferably
Substance: 1964 (QQQFPGQQ; REGION 1..8: note = epitope) [compound 1964]

Epitope sequence binding to IgE antibody, rank of the sequence (Key/Preferably/More preferably) (serum of patient P18 (WDEIA), sequence without X): Key
Substance: 2227 (LLRGIRN; REGION 1..7: note = epitope) [compound 2227]

Rank of partial sequence as epitope binding to IgE antibody (serum of patient P26 (WDEIA), sequence without X): Key
Substance: 1626 (YNPD; REGION 1..4: note = epitope) [compound 1626]

epitope sequence binding to IgE antibody, rank (Key/Preferably/More preferably) (serum of patient P12 (WDEIA)): Preferably
Substance: 1921 (QVPLVQQQ; REGION 1..8: note = epitope) [compound 1921]

epitope sequence binding to IgE antibody, rank (Key/Preferably/More preferably) (serum of patient P52 (child, general immediate type allergy to wheat)): Preferably
Substance: 1729 (ANFTSQVIIM; REGION 1..10: note = epitope) [compound 1729]

Rank of partial sequence as epitope binding to IgE antibody (serum of patient P20 (WDEIA), sequence without X): Key
Substance: 1695 (EAANFT; REGION 1..6: note = epitope) [compound 1695]

Rank of partial sequence as epitope binding to IgE antibody (serum of patient P15 (WDEIA), sequence without X): Key
Substance: 1613 (YNPD; REGION 1..4: note = epitope) [compound 1613]

epitope sequence binding to IgE antibody, rank (Key/Preferably/More preferably) (serum of patient P29 (WDEIA)): More preferably
Substance: 1869 (YTVRTLQRT; REGION 1..9: note = epitope) [compound 1869]

Epitope sequence binding to IgE antibody, rank of the sequence (serum of patient P10 (WDEIA), partial sequence): Key
Substance: 2638 (EAAE; REGION 1..4: note = epitope) [compound 2638]

Epitope sequence binding to IgE antibody, rank of the sequence (Key/Preferably/More preferably) (serum of patient P8 (WDEIA), sequence without X): Key
Substance: 2223 (IRNYRVA; REGION 1..7: note = epitope) [compound 2223]

Rank of partial sequence as epitope binding to IgE antibody (serum of patient P50 (child, general immediate type allergy to wheat), sequence without X): Key
Substance: 1560 (QQQFLGQQ; REGION 1..8: note = epitope) [compound 1560]

Epitope sequence binding to IgE antibody, rank of the sequence (serum of patient P17 (WDEIA), partial sequence): Key
Substance: 2713 (KIGG; REGION 1..4: note = epitope) [compound 2713]

Epitope sequence binding to IgE antibody, rank of the sequence [3]: Key
Substance: 1246 (PQQPP; REGION 1..5: note = epitope) [compound 1246]

Epitope sequence binding to IgE antibody, rank of the sequence (serum of patient P33 (WDEIA), sequence without X): Preferably
Substance: 1344 (INVEN; REGION 1..5: note = epitope) [compound 1344]

Rank of partial sequence as epitope binding to IgE antibody (serum of patient P16 (WDEIA), sequence without X): Key
Substance: 1439 (SQQQA; REGION 1..5: note = epitope) [compound 1439]

Rank of partial sequence as epitope binding to IgE antibody (serum of patient P19 (WDEIA), sequence without X): Preferably
Substance: 1693 (KEAANFTS; REGION 1..8: note = epitope) [compound 1693]

Epitope sequence binding to IgE antibody, rank of the sequence (serum of patient P31 (WDEIA), partial sequence): Key
Substance: 2740 (KIGGI; REGION 1..5: note = epitope) [compound 2740]

Rank of partial sequence as epitope binding to IgE antibody [4]: Key
Substance: 1642 (YNPD; REGION 1..4: note = epitope) [compound 1642]

Rank of partial sequence as epitope binding to IgE antibody (serum of patient P17 (WDEIA), sequence without X): Key
Substance: 1616 (FVPISG; REGION 1..6: note = epitope) [compound 1616]

Rank of partial sequence as epitope binding to IgE antibody (serum of patient P22 (WDEIA), sequence without X): More preferably
Substance: 1451 (LQPQQPISQ; REGION 1..9: note = epitope) [compound 1451]

Rank of partial sequence as epitope binding to IgE antibody [1]: Key
Substance: 1447 (QQPISQQQ; REGION 1..8: note = epitope) [compound 1447]

epitope sequence binding to IgE antibody, rank (Key/Preferably/More preferably) (serum of patient P15 (WDEIA)): Key
Substance: 1799 (KFLK; REGION 1..4: note = epitope) [compound 1799]

Epitope sequence binding to IgE antibody, rank of the sequence (serum of patient P36 (WDEIA), sequence without X): Preferably
Substance: 1255 (PQQPPC; REGION 1..6: note = epitope) [compound 1255]

Rank of partial sequence as epitope binding to IgE antibody (serum of patient P14 (WDEIA), sequence without X): Key
Substance: 1689 (SQVIIM; REGION 1..6: note = epitope) [compound 1689]

Epitope sequence binding to IgE antibody, rank of the sequence (serum of patient P22 (WDEIA), partial sequence): Key
Substance: 2683 (KGPTL; REGION 1..5: note = epitope) [compound 2683]

Epitope sequence binding to IgE antibody, rank of the sequence (Key/Preferably/More preferably) [4]: Preferably
Substance: 2398 (TEIVL; REGION 1..5: note = epitope) [compound 2398]

Epitope sequence binding to IgE antibody, rank of the sequence [2]: Key
Substance: 1366 (INVEN; REGION 1..5: note = epitope) [compound 1366]

epitope sequence binding to IgE antibody, rank (Key/Preferably/More preferably) (serum of patient P17 (WDEIA)): Key
Substance: 1801 (LEALPKFLKN; REGION 1..10: note = epitope) [compound 1801]

Epitope sequence binding to IgE antibody, rank of the sequence (serum of patient P51 (child, general immediate type allergy to wheat), partial sequence): Key
Substance: 2515 (SFQPSQ; REGION 1..6: note = epitope) [compound 2515]

Rank of partial sequence as epitope binding to IgE antibody (serum of patient P27 (WDEIA), sequence without X): Key
Substance: 1629 (YNPD; REGION 1..4: note = epitope) [compound 1629]

epitope sequence binding to IgE antibody, rank (Key/Preferably/More preferably) (serum of patient P56 (child, general immediate type allergy to wheat)): Preferably
Substance: 1734 (KEAANFT; REGION 1..7: note = epitope) [compound 1734]
